Assay results from paper PMC9413390 (Molecules, 2022).
Where a name gives a salt, the structure may show the parent alone. Read-outs that look alike come from different tables or passages of the source.

How the values were obtained:
σ2R = molecular target: T1, σ2R (Rattus norvegicus, UniProt Q5U3Y7); assay: σ2R radioligand competition binding assay ([3H]DTG, rat liver membranes)
T1 construct: The thawed membrane preparation of rat liver (250 μg/sample) was incubated; from tissue; host or cells: liver membranes of male Sprague-Dawley rats
T1 sequence (Q5U3Y7 1-176): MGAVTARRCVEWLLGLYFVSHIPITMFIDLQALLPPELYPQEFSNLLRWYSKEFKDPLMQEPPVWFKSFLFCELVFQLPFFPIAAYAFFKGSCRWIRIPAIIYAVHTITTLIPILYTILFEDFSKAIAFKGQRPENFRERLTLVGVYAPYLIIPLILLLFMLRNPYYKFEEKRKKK

DOR = molecular target: T2, DOR (Rattus norvegicus, UniProt P33533); assay: DOR radioligand binding assay ([3H]-Deltorphin II, rat brain membranes)
T2 construct: from tissue; host or cells: brain membranes of male Sprague-Dawley rats

KOR = molecular target: T3, KOR (Cavia porcellus, UniProt P41144); assay: biochemical; assay type: binding, guinea pig
T3 construct: from tissue; host or cells: brain membranes of male Dunkin-Hartley guinea pigs

MOR = molecular target: T4, MOR (Rattus norvegicus, UniProt P33535); assay: MOR radioligand binding assay ([3H]-DAMGO, rat brain membranes)
T4 construct: from tissue; host or cells: brain membranes of male Sprague-Dawley rats

σ1R = molecular target: T5, σ1R (Cavia porcellus, UniProt Q60492); assay: σ1R radioligand competition binding assay ([3H]-(+)-pentazocine, guinea pig brain cortex membranes); conditions: for Ki σ2R/σ1R selectivity ratio: ratio of Ki σ2R to Ki σ1R
T5 construct: The thawed membrane preparation of guinea pig brain cortex (250 μg/sample) was incubated; from tissue; host or cells: brain cortex membranes of male Dunkin-Hartley guinea pigs

[1] = system: formalin-induced pain behaviour; assay: Mouse formalin test; assay type: in vivo
Procedure: Mice injected with 5% formalin into the mid-plantar surface of the right hind paw developed the characteristic formalin-induced pain behaviour, evidenced by a biphasic flinching and lifting/licking response. The time course of formalin-induced behaviours evidenced an immediate and acute nociceptive activity (0–5 min, phase I) that, after a short quiescent period (5–10 min, interphase), was followed by a more prolonged response (10–60 min, phase II).
To evaluate the systemic antinociceptive effect in both phases of the formalin test, vehicle, (−)-2R-LP2 (2) (2mg/kg), (−)-2S-LP2 (3) (0.7 mg/kg), (+)-2R/S-LP2 (7) (5 mg/kg), and (+)-2R-LP2 (8) (5 mg/kg) were administrated intraperitoneally (i.p.) 20 min before formalin injection, at doses chosen in accordance to previous studies.
Experiments were performed on male CD1 mice (Envigo Laboratories, Indianapolis, IN, USA) aged between 8 and 12 weeks. Mice were housed in 5 animals per cage under a 12/12 h light/dark cycle at a constant temperature (23–25 °C) with free access to food and water, and were allowed to acclimate for at least one week upon arrival before starting all experiments, which were conducted between 9:00 a.m. and 3:00 p.m. This study was executed according to the European Communities Council directive and Italian regulation (EEC Council 2010/63/EU and Italian D.Lgs. no. 26/2014) to replace, reduce, and refine the use of laboratory animals. All procedures were approved by the ethical committee of the University of Catania (OPBA) and by the Italian Ministry of Health (authorization n° 385/2021-PR).
Formalin and naloxone hydrochloride were purchased from Merck. PRE-84 synthesis was reported in the supporting information (Figure S7). All compounds were dissolved in pyrogen-free isotonic saline and dimethyl sulfoxide, (DMSO 0.5% v/v). All LP compounds were administrated i.p. 20 min before formalin injection. Naloxone hydrochloride s.c. and PRE-084 hydrochloride s.c. were administered 20 min before the injection of the LP compounds.
Formalin solution (5%, 10 μL) was administered subcutaneously into the plantar surface of the right hind paw (i.pl.), monitoring the nociceptive behavior, such as licking and flicking or shanking the injected paw, for 1 h and recording every 5 min, as previously reported.
The formalin injection induces a rapid pain response (phase I), which lasts about 5 min, due to direct nociceptors’ activation, characterized by an acute form of pain. After a short quiescent period, another behavioral pain form (phase II) occurs, considered more important clinically, characterized by an inflammatory component and persistent pain due to nociceptive sensitization in the dorsal horn of the spinal cord.
Results are expressed as mean ± S.E.M. (n = 8–10 per group). * p < 0.05, ** p < 0.01. Two-way ANOVA was followed by Bonferroni’s multiple comparison test. Statistical analyses were performed using GraphPad Prism version 9.3.1 (GraphPad Software, San Diego, CA, USA).

[2] = system: formalin-induced pain behaviour; design: method as in PMID 32186844, PMID 19587856; conditions: mouse, injected alone; cited from earlier work
[3] = 5 mg/kg i.p. 20 min before formalin, vs vehicle

T4 sequence (P33535 whole entry): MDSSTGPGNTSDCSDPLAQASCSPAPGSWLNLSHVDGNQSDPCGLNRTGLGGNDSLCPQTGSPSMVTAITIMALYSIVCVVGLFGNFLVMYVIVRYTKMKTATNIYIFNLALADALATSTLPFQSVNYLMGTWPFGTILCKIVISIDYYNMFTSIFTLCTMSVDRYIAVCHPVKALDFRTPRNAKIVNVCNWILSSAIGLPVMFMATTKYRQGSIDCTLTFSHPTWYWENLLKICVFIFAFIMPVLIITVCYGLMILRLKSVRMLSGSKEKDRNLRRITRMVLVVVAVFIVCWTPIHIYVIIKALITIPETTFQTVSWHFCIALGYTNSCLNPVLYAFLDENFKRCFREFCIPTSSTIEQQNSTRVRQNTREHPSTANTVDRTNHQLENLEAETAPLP
T2 sequence (P33533 whole entry): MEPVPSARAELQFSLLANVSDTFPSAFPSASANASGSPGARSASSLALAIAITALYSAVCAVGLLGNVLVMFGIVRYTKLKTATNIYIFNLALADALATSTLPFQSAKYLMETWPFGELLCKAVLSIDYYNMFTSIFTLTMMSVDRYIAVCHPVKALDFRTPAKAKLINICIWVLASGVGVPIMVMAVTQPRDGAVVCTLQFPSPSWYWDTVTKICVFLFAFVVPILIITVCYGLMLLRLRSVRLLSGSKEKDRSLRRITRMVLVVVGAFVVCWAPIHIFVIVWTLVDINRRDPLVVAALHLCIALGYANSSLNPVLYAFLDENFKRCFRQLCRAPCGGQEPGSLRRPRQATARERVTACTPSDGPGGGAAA
T3 sequence (P41144 whole entry): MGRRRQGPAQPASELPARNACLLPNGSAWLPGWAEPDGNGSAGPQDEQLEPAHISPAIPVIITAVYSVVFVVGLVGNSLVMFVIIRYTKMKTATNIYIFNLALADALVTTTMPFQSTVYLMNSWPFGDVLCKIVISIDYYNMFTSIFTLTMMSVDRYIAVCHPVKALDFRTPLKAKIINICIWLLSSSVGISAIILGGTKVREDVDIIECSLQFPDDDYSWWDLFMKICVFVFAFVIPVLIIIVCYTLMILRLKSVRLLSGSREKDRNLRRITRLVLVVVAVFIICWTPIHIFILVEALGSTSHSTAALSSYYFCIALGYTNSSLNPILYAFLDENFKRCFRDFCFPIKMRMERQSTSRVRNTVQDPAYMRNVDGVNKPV
T5 sequence (Q60492 whole entry): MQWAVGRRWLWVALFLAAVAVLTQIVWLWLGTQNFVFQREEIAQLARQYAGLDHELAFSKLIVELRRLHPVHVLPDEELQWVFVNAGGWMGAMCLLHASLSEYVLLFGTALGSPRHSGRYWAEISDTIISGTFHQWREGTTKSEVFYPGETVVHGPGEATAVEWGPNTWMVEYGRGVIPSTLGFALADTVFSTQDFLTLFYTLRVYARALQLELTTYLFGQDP

Compound	Ki (σ2R)	Ki (DOR)	Ki (KOR)	Ki (MOR)	Ki (σ1R)	also measured
COC(CN1CC[C@]2(C)c3cc(O)ccc3C[C@H]1[C@H]2C)c1ccccc1 (single isomer, unassigned; (+)) [(+)-2R/S-LP2 (7)]	2.39 ± 0.514 µM	1.03 ± 0.035 µM	1.39 ± 0.04 µM	1.14 ± 0.02 µM	26.6 ± 2.35 nM	severity of the first phase of formalin-induced pain ([1]; 5 mg/kg i.p. 20 min before formalin, phase I): did not alter; second phase of formalin-induced pain (number of flinches, lifting/licking time) ([1]; 5 mg/kg i.p. 20 min before formalin, phase II, vs vehicle): significantly decreased; antinociceptive effect after PRE-084 pre-treatment ([1]; PRE-084 hydrochloride 32 mg/kg s.c. 20 min before compound 5 mg/kg i.p., second phase): prevented
COC(CN1CC[C@@]2(C)c3cc(O)ccc3C[C@@H]1[C@@H]2C)c1ccccc1 (single isomer, unassigned; (-)) [(−)-2R/S-LP2 (1)]	0.0665 ± 0.0109 µM	–	–	–	171 ± 46.1 nM	–
CO[C@@H](CN1CC[C@]2(C)c3cc(O)ccc3C[C@H]1[C@H]2C)c1ccccc1 [(+)-2R-LP2 (8), (2S,6S,11S)-3-((R)-2-methoxy-2-phenylethyl)-6,11-dimethyl-1,2,3,4,5,6-hexahydro-2,6-methanobenzo[d]azocin-8-ol]	1.91 ± 0.325 µM	1.01 ± 0.025 µM	1.61 ± 0.07 µM	0.789 ± 0.03 µM	47.9 ± 7.52 nM	Ki σ2R/σ1R selectivity ratio (σ1R): 40; effect on nociceptive behaviour in the formalin test [1, 3]: not significative
CO[C@H](CN1CC[C@]2(C)c3cc(O)ccc3C[C@H]1[C@H]2C)c1ccccc1 [(+)-2S-LP2 (9), (2S,6S,11S)-3-((S)-2-methoxy-2-phenylethyl)-6,11-dimethyl-1,2,3,4,5,6-hexahydro-2,6-methanobenzo[d]azocin-8-ol]	2.22 ± 0.417 µM	1.04 ± 0.04 µM	1.45 ± 0.029 µM	1.17 ± 0.03 µM	47 ± 8.82 nM	Ki σ2R/σ1R selectivity ratio (σ1R): 47; effect on nociceptive behaviour in the formalin test [1, 3]: did not differ significantly from the vehicle
CO[C@@H](CN1CC[C@@]2(C)c3cc(O)ccc3C[C@@H]1[C@@H]2C)c1ccccc1 [(−)-2R-LP2 (2)]	0.0667 ± 0.0179 µM	–	–	–	183 ± 21 nM	analgesic effect, flinching/licking time in both phases of the formalin test ([1]; 2 mg/kg i.p. 20 min before 5% formalin): same profile with a minor potency
CO[C@H](CN1CC[C@@]2(C)c3cc(O)ccc3C[C@@H]1[C@@H]2C)c1ccccc1 [(−)-2S-LP2 (3)]	1.01 ± 0.191 µM	–	–	–	113 ± 13.5 nM	analgesic effect, flinching/licking time in both phases of the formalin test ([1]; 0.7 mg/kg i.p. 20 min before 5% formalin): significant analgesic effect; antinociceptive effect after naloxone pre-treatment ([1]; naloxone hydrochloride 3 mg/kg s.c. 20 min before compound 0.7 mg/kg i.p.): antagonized
CN1CCN(CCc2ccc(Cl)c(Cl)c2)CC1 [BD-1063, reference compound]	–	–	–	–	–	Ki (σ1R; [3H]-(+)-pentazocine 2 nM, guinea pig brain cortex membranes, read-out: Ki (nM) ± SD σ1R): 14 ± 2.7 nM
O=C(OCCN1CCOCC1)C1(c2ccccc2)CCCCC1 [PRE-084 hydrochloride, 2-morpholinoethyl 1-phenylcyclohexane-1-carboxylate]	–	–	–	–	–	severity of the first and second phases of formalin-induced pain, given alone [2]: did not change
